Experiments:
[1] = tested on: OVCAR-8 (Ovarian Carcinoma); assay: Bliss excess, mean over the matrix (fraction); higher = more synergy
Procedure, shortened: (§1)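 Bliss excess equals the observed combination effect minus the expected value EA + EB − EA·EB, where EA and EB are the effects of each agent alone. Combination Emax is the second-highest inhibition within the matrix. Inhibition was scaled from CellTiter-Glo 2.0 luminescence, with 0 set by vehicle wells and 1 by blank wells, after 72 hours of two-drug dosing of cells plated in 1536-well plates.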

[2] = tested on: SU-DHL-6 (B-Cell Non-Hodgkin's Lymphoma); assay: as above
Procedure, shortened: as §1

[3] = tested on: SW1116 (Colorectal Carcinoma); assay: as above
Procedure, shortened: as §1

[4] = tested on: HARA (Squamous Cell Lung Carcinoma); assay: as above
Procedure, shortened: as §1

[5] = tested on: EN (Endometrial Carcinoma); assay: combination Emax (second highest fraction inhibited in the dose matrix, 72 h); higher = more inhibition; extreme values may be limits of the assay
Procedure, shortened: as §1

[6] = tested on: 639-V (Bladder Carcinoma); assay: as above
Procedure, shortened: as §1

[7] = tested on: CAPAN-1 (Pancreatic Carcinoma); assay: as above
Procedure, shortened: as §1

NB14 (Neuroblastoma) = assay: as above
Procedure, shortened: as §1

[8] = tested on: PCI-30 (Head and Neck Carcinoma); assay: as above
Procedure, shortened: as §1

[9] = tested on: SUP-T1 (T-Lymphoblastic Leukemia); assay: as above
Procedure, shortened: as §1

COLO-829 (Melanoma) = assay: as above
Procedure, shortened: as §1

[10] = tested on: KYSE-410 (Esophageal Squamous Cell Carcinoma); assay: as above
Procedure, shortened: as §1

SH-4 (Melanoma) = assay: as above
Procedure, shortened: as §1

[11] = tested on: SK-OV-3 (Ovarian Carcinoma); assay: as above
Procedure, shortened: as §1

NCI-H2461 (Mesothelioma) = assay: as above
Procedure, shortened: as §1

[12] = tested on: SW1116 (Colorectal Carcinoma); assay: as above
Procedure, shortened: as §1

[13] = tested on: UMC-11 (Other Solid Carcinomas); assay: as above
Procedure, shortened: as §1

[14] = tested on: TE-4 (Esophageal Squamous Cell Carcinoma); assay: as above
Procedure, shortened: as §1

[15] = tested on: HARA (Squamous Cell Lung Carcinoma); assay: as above
Procedure, shortened: as §1

[16] = tested on: HCC-15 (Squamous Cell Lung Carcinoma); assay: as above
Procedure, shortened: as §1

Structure (SMILES)	Bliss excess [1]	Bliss excess [2]	Bliss excess [3]	Bliss excess [4]	combination Emax [5]	combination Emax [6]	combination Emax [7]	combination Emax (NB14 (Neuroblastoma))	combination Emax [8]	combination Emax [9]	combination Emax (COLO-829 (Melanoma))	combination Emax [10]	combination Emax (SH-4 (Melanoma))	combination Emax [11]	combination Emax (NCI-H2461 (Mesothelioma))	combination Emax [12]	combination Emax [13]	combination Emax [14]	combination Emax [15]	combination Emax [16]
CCN(CCO)CCCOc1ccc2c(Nc3cc(CC(=O)Nc4cccc(F)c4)[nH]n3)ncnc2c1 [AZD2811] + C=CCn1c(=O)c2cnc(Nc3ccc(N4CCN(C)CC4)cc3)nc2n1-c1cccc(C(C)(C)O)n1 [AZD1775] (first compound max 1 µM, partner max 1 µM)	0.0213	0.0537	-0.0275	-0.0086	0.558	0.265	0.416	1	0.344	0.839	0.274	0.267	0.456	0.434	0.638	0.208	0.832	0.171	0.788	0.723
CCN(CCO)CCCOc1ccc2c(Nc3cc(CC(=O)Nc4cccc(F)c4)[nH]n3)ncnc2c1 [AZD2811] + C[C@@H]1COCCN1C2=NC(=NC(=C2)C3(CC3)[S@](=N)(=O)C)C4=C5C=CNC5=NC=C4 [AZD6738] (first compound max 1 µM, 7x7, partner max 10 µM)	-0.0192	0.0131	-0.0234	0.0144	0.609	0.339	0.442	0.998	0.581	0.777	0.219	0.355	0.31	0.547	0.739	0.295	0.799	0.372	0.816	0.824
CCN(CCO)CCCOc1ccc2c(Nc3cc(CC(=O)Nc4cccc(F)c4)[nH]n3)ncnc2c1 [AZD2811] + O=C(c1cc(Cc2n[nH]c(=O)c3ccccc23)ccc1F)N1CCN(C(=O)C2CC2)CC1 [Olaparib] (first compound max 1 µM, 7x7, partner max 10 µM)	0.0244	0.0252	-0.0008	-0.0071	0.434	0.237	0.338	0.889	0.265	0.528	0.254	0.165	0.265	0.226	0.278	0.223	0.75	0.145	0.318	0.755
CN(CCO)CC[C@H](CSc1ccccc1)Nc1ccc(S(=O)(=O)NC(=O)c2ccc(N3CCC([C@@H](O)c4ccccc4-c4ccc(Cl)cc4)CC3)cc2)cc1S(=O)(=O)C(F)(F)F [AZD4320] + C1CN(CCC1(C(=O)N[C@@H](CCO)C2=CC=C(C=C2)Cl)N)C3=NC=NC4=C3C=CN4 [Capivasertib] (first compound max 1 µM, 7x7, partner max 3 µM)	-0.0468	0.0292	-0.0612	-0.0268	0.576	0.154	0.161	0.947	0.191	0.505	0.118	0.0467	0.129	0.369	0.429	0.139	0.508	0.511	0.298	0.923
CN(CCO)CC[C@H](CSc1ccccc1)Nc1ccc(S(=O)(=O)NC(=O)c2ccc(N3CCC([C@@H](O)c4ccccc4-c4ccc(Cl)cc4)CC3)cc2)cc1S(=O)(=O)C(F)(F)F [AZD4320] + C=CCn1c(=O)c2cnc(Nc3ccc(N4CCN(C)CC4)cc3)nc2n1-c1cccc(C(C)(C)O)n1 [AZD1775] (first compound max 1 µM, partner max 1 µM)	-0.012	0.14	0.0003	-0.0129	0.567	0.377	0.732	1	0.323	0.909	0.265	0.796	0.5	0.628	0.782	0.264	0.632	0.466	0.887	0.946
CN(CCO)CC[C@H](CSc1ccccc1)Nc1ccc(S(=O)(=O)NC(=O)c2ccc(N3CCC([C@@H](O)c4ccccc4-c4ccc(Cl)cc4)CC3)cc2)cc1S(=O)(=O)C(F)(F)F [AZD4320] + CCN(CCO)CCCOc1ccc2c(Nc3cc(CC(=O)Nc4cccc(F)c4)[nH]n3)ncnc2c1 [AZD2811] (first compound max 1 µM, 7x7, partner max 1 µM)	0.028	0.0635	-0.0299	0.106	0.381	0.303	0.336	1	0.284	0.545	0.196	0.17	0.181	0.178	0.174	0.144	0.93	0.0998	0.63	0.966

Source: the supplement of paper PMC11061612
